According to ChEMBL document CHEMBL3603745, “Synthesis of ciprofloxacin dimers for evaluation of bacterial permeability in atypical chemical space” (Bioorg Med Chem Lett, 2015):
In brackets after ≈: the same amount, converted by molar mass.

Assays:
[1] = tested on: Escherichia coli; assay: Antibacterial activity against tolC-deficient Escherichia coli JW5503-1 by broth microdilution method; assay type: functional
[2] = tested on: Escherichia coli; assay: Antibacterial activity against wild type Escherichia coli BW5328/pAH69 by broth microdilution method; assay type: functional
[3] = tested on: Escherichia coli; assay: Antibacterial activity against wild type Escherichia coli MC4100 by broth microdilution method; assay type: functional
[4] = Inhibition of Escherichia coli recombinant gyrase A2B2 assessed as reduction of pHOT-1 supercoiling after 90 mins
[5] = tested on: Staphylococcus aureus; assay: Antibacterial activity against wild type Staphylococcus aureus ATCC 29213 by broth microdilution method; assay type: functional
[6] = tested on: Pseudomonas aeruginosa; assay: Antibacterial activity against Pseudomonas aeruginosa K1542 deficient with mexX, mexB by broth microdilution method; assay type: functional
[7] = tested on: Pseudomonas aeruginosa; assay: Antibacterial activity against mexX, mexB deficient Pseudomonas aeruginosa NB52023-CDK005 harboring gyrAT83I by broth microdilution method; assay type: functional
[8] = tested on: Escherichia coli; assay: Antibacterial activity against Escherichia coli imp-4213 by broth microdilution method; assay type: functional
[9] = tested on: Pseudomonas aeruginosa; assay: Antibacterial activity against mexX, mexB deficient Pseudomonas aeruginosa NB52023-CDK006 harboring gyrAT83I and parC S87L by broth microdilution method; assay type: functional
[10] = tested on: Escherichia coli; assay: Antibacterial activity against fluoroquinolone-resistant Escherichia coli CH10 harboring gyrA S83L D87N, parC S80I E84G, AcrA+ by broth microdilution method; assay type: functional
[11] = tested on: Escherichia coli; assay: Antibacterial activity against tolC-deficient Escherichia coli NB27005-CDY0039 expressing gyrA S83L […], parC S80I mutant by broth microdilution method; assay type: functional
[12] = tested on: Staphylococcus aureus; assay: Antibacterial activity against wild type methicillin-susceptible Staphylococcus aureus ATCC 49951 by broth microdilution method; assay type: functional
[13] = tested on: Pseudomonas aeruginosa; assay: Antibacterial activity against wild type Pseudomonas aeruginosa PAO1 by broth microdilution method; assay type: functional
[14] = tested on: Escherichia coli; assay: Antibacterial activity against wild type Escherichia coli ATCC 25922 by broth microdilution method; assay type: functional
[15] = tested on: Staphylococcus aureus; assay: Antibacterial activity against fluoroquinolone-resistant Staphylococcus aureus NB01006-AVR005 harboring gyrA S84L, parC S80F, parE E471K by broth microdilution method; assay type: functional

Structure (SMILES) | MIC [1] | MIC [2] | MIC [3] | IC50 [4] | MIC [5] | MIC [6] | MIC [7] | MIC [8] | MIC [9] | MIC [10] | MIC [11] | MIC [12] | MIC [13] | MIC [14] | MIC [15]
C=CCCC(=O)N1CCN(c2cc3c(cc2F)c(=O)c(C(=O)O)cn3C2CC2)CC1 | ≤ 0.03 µg/mL | 1 µg/mL (≈ 2.42 µM) | 1 µg/mL (≈ 2.42 µM) | 760 nM | 0.25 µg/mL (≈ 0.605 µM) | 2 µg/mL (≈ 4.84 µM) | > 32 µg/mL | ≤ 0.03 µg/mL | > 32 µg/mL | > 32 µg/mL | 2 µg/mL (≈ 4.84 µM) | 0.25 µg/mL (≈ 0.605 µM) | 16 µg/mL (≈ 38.7 µM) | 0.5 µg/mL (≈ 1.21 µM) | 32 µg/mL (≈ 77.4 µM)
O=C(O)c1cn(C2CC2)c2cc(N3CCN(CCOCCOCCOc4ccc5ccc(=O)oc5c4)CC3)c(F)cc2c1=O | ≤ 0.03 µg/mL | 1 µg/mL (≈ 1.65 µM) | 2 µg/mL (≈ 3.29 µM) | 6670 nM | 2 µg/mL (≈ 3.29 µM) | 8 µg/mL (≈ 13.2 µM) | > 32 µg/mL | 0.125 µg/mL (≈ 0.206 µM) | > 32 µg/mL | > 32 µg/mL | > 32 µg/mL | 2 µg/mL (≈ 3.29 µM) | 16 µg/mL (≈ 26.3 µM) | 1 µg/mL (≈ 1.65 µM) | > 32 µg/mL
O=C(O)c1cn(C2CC2)c2cc(N3CCN(CCOCCOCCOCCOCCOCCN4CCN(c5cc6c(cc5F)c(=O)c(C(=O)O)cn6C5CC5)CC4)CC3)c(F)cc2c1=O | 0.125 µg/mL (≈ 0.138 µM) | 2 µg/mL (≈ 2.2 µM) | 4 µg/mL (≈ 4.4 µM) | 10000 nM | 8 µg/mL (≈ 8.8 µM) | 8 µg/mL (≈ 8.8 µM) | > 32 µg/mL | 0.125 µg/mL (≈ 0.138 µM) | > 32 µg/mL | > 32 µg/mL | > 32 µg/mL | 2 µg/mL (≈ 2.2 µM) | 32 µg/mL (≈ 35.2 µM) | 2 µg/mL (≈ 2.2 µM) | > 32 µg/mL
O=C(CCN1CCN(c2cc3c(cc2F)c(=O)c(C(=O)O)cn3C2CC2)CC1)NCCOCCOCCNC(=O)CCN1CCN(c2cc3c(cc2F)c(=O)c(C(=O)O)cn3C2CC2)CC1 | 1 µg/mL (≈ 1.09 µM) | 8 µg/mL (≈ 8.71 µM) | 8 µg/mL (≈ 8.71 µM) | 2140 nM | > 32 µg/mL | > 32 µg/mL | > 32 µg/mL | 4 µg/mL (≈ 4.35 µM) | > 32 µg/mL | > 32 µg/mL | > 32 µg/mL | > 32 µg/mL | > 32 µg/mL | 8 µg/mL (≈ 8.71 µM) | > 32 µg/mL
O=CN1CCN(c2cc3c(cc2F)c(=O)c(C(=O)O)cn3C2CC2)CC1 | ≤ 0.03 µg/mL | 0.125 µg/mL (≈ 0.348 µM) | 0.25 µg/mL (≈ 0.696 µM) | 250 nM | 0.25 µg/mL (≈ 0.696 µM) | 0.25 µg/mL (≈ 0.696 µM) | 16 µg/mL (≈ 44.5 µM) | ≤ 0.03 µg/mL | 32 µg/mL (≈ 89 µM) | > 32 µg/mL | 4 µg/mL (≈ 11.1 µM) | 0.25 µg/mL (≈ 0.696 µM) | 2 µg/mL (≈ 5.57 µM) | 0.125 µg/mL (≈ 0.348 µM) | 32 µg/mL (≈ 89 µM)
O=C(O)c1cn(C2CC2)c2cc(N3CCNCC3)c(F)cc2c1=O [CIPROFLOXACIN] | ≤ 0.03 µg/mL | ≤ 0.03 µg/mL | ≤ 0.03 µg/mL | 460 nM | 0.5 µg/mL (≈ 1.51 µM) | 0.06 µg/mL (≈ 0.181 µM) | – | ≤ 0.03 µg/mL | 4 µg/mL (≈ 12.1 µM) | > 32 µg/mL | – | 0.25 µg/mL (≈ 0.754 µM) | – | ≤ 0.03 µg/mL | > 32 µg/mL
Cc1cc(C(=O)N2CCN(c3cc4c(cc3F)c(=O)c(C(=O)O)cn4C3CC3)CC2)cc(C(=O)N2CCN(c3cc4c(cc3F)c(=O)c(C(=O)O)cn4C3CC3)CC2)c1 | ≤ 0.03 µg/mL | 0.5 µg/mL (≈ 0.62 µM) | 0.5 µg/mL (≈ 0.62 µM) | 1160 nM | 1 µg/mL (≈ 1.24 µM) | 0.5 µg/mL (≈ 0.62 µM) | 8 µg/mL (≈ 9.92 µM) | ≤ 0.03 µg/mL | > 32 µg/mL | > 32 µg/mL | 16 µg/mL (≈ 19.8 µM) | 0.5 µg/mL (≈ 0.62 µM) | 4 µg/mL (≈ 4.96 µM) | 0.5 µg/mL (≈ 0.62 µM) | > 32 µg/mL
CC[C@H]1OC(=O)[C@H](C)[C@@H](O[C@H]2C[C@@](C)(OC)[C@@H](O)[C@H](C)O2)[C@H](C)[C@@H](O[C@@H]2O[C@H](C)C[C@H](N(C)C)[C@H]2O)[C@](C)(O)C[C@@H](C)C(=O)[C@H](C)[C@@H](O)[C@]1(C)O [ERYTHROMYCIN] | 2 µg/mL (≈ 2.73 µM) | 32 µg/mL (≈ 43.6 µM) | > 32 µg/mL | – | 0.25 µg/mL (≈ 0.341 µM) | > 32 µg/mL | > 32 µg/mL | 2 µg/mL (≈ 2.73 µM) | > 32 µg/mL | > 32 µg/mL | 2 µg/mL (≈ 2.73 µM) | 0.25 µg/mL (≈ 0.341 µM) | > 32 µg/mL | > 32 µg/mL | 0.5 µg/mL (≈ 0.681 µM)
